Source: article PMC9370394, “New Monocyclic Terpenoid Lactones from a Brown Algae Sargassum macrocarpum as Monoamine Oxidase Inhibitors” (Plants, 2022)

Target: T1, human monoamine oxidase A (hMAO-A) (Homo sapiens, UniProt P21397)
T1 construct: gene MAOA
T1 sequence (P21397 1-527): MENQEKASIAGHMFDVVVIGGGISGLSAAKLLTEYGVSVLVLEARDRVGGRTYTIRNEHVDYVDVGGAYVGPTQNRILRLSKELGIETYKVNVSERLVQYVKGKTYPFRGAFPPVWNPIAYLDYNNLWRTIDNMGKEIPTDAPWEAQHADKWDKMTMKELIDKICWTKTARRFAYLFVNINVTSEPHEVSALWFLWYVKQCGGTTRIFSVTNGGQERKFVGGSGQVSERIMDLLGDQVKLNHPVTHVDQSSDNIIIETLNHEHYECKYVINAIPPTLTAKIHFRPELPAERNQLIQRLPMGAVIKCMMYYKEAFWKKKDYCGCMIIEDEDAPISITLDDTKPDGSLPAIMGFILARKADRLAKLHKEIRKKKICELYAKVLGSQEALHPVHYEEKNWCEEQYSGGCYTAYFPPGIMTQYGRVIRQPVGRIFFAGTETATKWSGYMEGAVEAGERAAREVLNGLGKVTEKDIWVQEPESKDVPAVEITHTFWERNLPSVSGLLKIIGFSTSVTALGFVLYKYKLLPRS
Test: MAO-Glo luminescence enzyme assay, single concentration of […]
Format: biochemical

inhibition at 200 µM: 42.2 ± 2.68%
Structure (SMILES): CC(=O)CC/C=C1/CC[C@H](C(C)(C)O)OC1=O [compound 1, 6R-(2-hydroxypropan-2-yl)-3Z-(4-oxopentylidene)tetrahydro-2H-pyran-2-one]
